Here are results for two compounds from US5135847A, “Substrate composition for alkaline phosphatase and method for assay using same” (Becton, Dickinson and Company, priority 1988, dated 1992).

The conditions of data set [1]: pH 7.9 versus pH 2; cited from earlier work.
For another data set, the system named is AP from the intestine. The following applies: intestinal versus nonintestinal AP; cited from earlier work.
Data set [2] relates to AP from several mammalian tissue types. The following applies: cited from earlier work.
Data set [3] concerns bovine liver alkaline phosphatase. The data set can be described thus: Accelerated stability in various pH 9.8 buffers at 45° C.; functional inhibitor measured by inhibition of bovine liver alkaline phosphatase. The class given is physicochemical. The settings on record: for Percent of Functional Levamisole Remaining: 45° C., Day 0. The method, then: Various buffers were prepared at 100 mM concentrations, containing 1 mM magnesium chloride, and adjusted to pH 9.8. […] (accelerated decomposition study). […] Bovine liver AP was added and the reaction kinetics were followed at 405 nm.

Data set [4] has the same test system. The data set can be described thus: Potency as alkaline phosphatase inhibitor relative to levamisole. The data set is classed as biochemical.

Consider `c1ccc([C@H]2CN3CCSC3=N2)cc1` [levamisole, (-)2,3,5,6-tetrahydro-6-phenylimidazo[1,2-b]thiazole], for which, in data set [1], the “decomposed faster at pH 7.9 than at pH 2” value is reported as 70 times. Further, the “less potent toward AP from the intestine than toward AP from several mammalian tissue types” value in the data set on AP from the intestine is on record as “approximately 100 fold”. In addition, the “inhibition of AP from several mammalian tissue types” value in data set [2] is on record as “potent inhibitor”. The “Percent of Functional Levamisole Remaining” value stood at 100% in data set [3] (AMP buffer 100 mM, 1 mM magnesium chloride, pH 9.8, 1 mM levamisole); 100% in data set [3] (AMPD buffer 100 mM, 1 mM magnesium chloride, pH 9.8, 1 mM levamisole); 100% in data set [3] (Carbonate buffer 100 mM, 1 mM magnesium chloride, pH 9.8, 1 mM levamisole); 100% in data set [3] (Diethanolamine buffer 100 mM, 1 mM magnesium chloride, pH 9.8, 1 mM levamisole); 100% in data set [3] (Glycine buffer 100 mM, 1 mM magnesium chloride, pH 9.8, 1 mM levamisole); 100% in data set [3] (Triethanolamine buffer 100 mM, 1 mM magnesium chloride, pH 9.8, 1 mM levamisole). The “stability in AMPD and particularly in AMP compared with other buffers” value in data set [3] (pH 9.8, 45° C.) is on record as “substantially greater”.

In the case of `Brc1ccc([C@H]2CN3CCSC3=N2)cc1` [p-bromolevamisole], the “more potent than levamisole” value in data set [4] is “approximately 10 fold”. Also, the “Percent of Functional Levamisole Remaining” value in data set [3] (AMP buffer, pH 9.8, 0.1 mM p-bromolevamisole) is on record as 100%; in data set [3] (AMPD buffer, pH 9.8, 0.1 mM p-bromolevamisole), 100%; in data set [3] (Carbonate buffer, pH 9.8, 0.1 mM p-bromolevamisole) it was 100%; in data set [3] (Diethanolamine buffer, pH 9.8, 0.1 mM p-bromolevamisole), 100%; in data set [3] (Glycine buffer, pH 9.8, 0.1 mM p-bromolevamisole) it was 100%; in data set [3] (Triethanolamine buffer, pH 9.8, 0.1 mM p-bromolevamisole) it was 100%. Also, the “decomposition compared with the parent compound (levamisole)” value in data set [3] (pH 9.8, 45° C.) is listed as “quite a bit faster”.
